Patent US12692234B2, “Rock inhibitors and uses thereof” (Alcon Inc., priority 2024, dated 2026)

Tests used:
ROCK1 = ROCK1 (Homo sapiens, UniProt Q13464); assay: Kinase inhibition assay (KINASE-GLO), ROCK1; type: biochemical
ROCK2 = ROCK2 (Homo sapiens, UniProt O75116); conditions: read-out: Ki (nM) ROCK2
ROCK2, sequence (O75116 whole entry): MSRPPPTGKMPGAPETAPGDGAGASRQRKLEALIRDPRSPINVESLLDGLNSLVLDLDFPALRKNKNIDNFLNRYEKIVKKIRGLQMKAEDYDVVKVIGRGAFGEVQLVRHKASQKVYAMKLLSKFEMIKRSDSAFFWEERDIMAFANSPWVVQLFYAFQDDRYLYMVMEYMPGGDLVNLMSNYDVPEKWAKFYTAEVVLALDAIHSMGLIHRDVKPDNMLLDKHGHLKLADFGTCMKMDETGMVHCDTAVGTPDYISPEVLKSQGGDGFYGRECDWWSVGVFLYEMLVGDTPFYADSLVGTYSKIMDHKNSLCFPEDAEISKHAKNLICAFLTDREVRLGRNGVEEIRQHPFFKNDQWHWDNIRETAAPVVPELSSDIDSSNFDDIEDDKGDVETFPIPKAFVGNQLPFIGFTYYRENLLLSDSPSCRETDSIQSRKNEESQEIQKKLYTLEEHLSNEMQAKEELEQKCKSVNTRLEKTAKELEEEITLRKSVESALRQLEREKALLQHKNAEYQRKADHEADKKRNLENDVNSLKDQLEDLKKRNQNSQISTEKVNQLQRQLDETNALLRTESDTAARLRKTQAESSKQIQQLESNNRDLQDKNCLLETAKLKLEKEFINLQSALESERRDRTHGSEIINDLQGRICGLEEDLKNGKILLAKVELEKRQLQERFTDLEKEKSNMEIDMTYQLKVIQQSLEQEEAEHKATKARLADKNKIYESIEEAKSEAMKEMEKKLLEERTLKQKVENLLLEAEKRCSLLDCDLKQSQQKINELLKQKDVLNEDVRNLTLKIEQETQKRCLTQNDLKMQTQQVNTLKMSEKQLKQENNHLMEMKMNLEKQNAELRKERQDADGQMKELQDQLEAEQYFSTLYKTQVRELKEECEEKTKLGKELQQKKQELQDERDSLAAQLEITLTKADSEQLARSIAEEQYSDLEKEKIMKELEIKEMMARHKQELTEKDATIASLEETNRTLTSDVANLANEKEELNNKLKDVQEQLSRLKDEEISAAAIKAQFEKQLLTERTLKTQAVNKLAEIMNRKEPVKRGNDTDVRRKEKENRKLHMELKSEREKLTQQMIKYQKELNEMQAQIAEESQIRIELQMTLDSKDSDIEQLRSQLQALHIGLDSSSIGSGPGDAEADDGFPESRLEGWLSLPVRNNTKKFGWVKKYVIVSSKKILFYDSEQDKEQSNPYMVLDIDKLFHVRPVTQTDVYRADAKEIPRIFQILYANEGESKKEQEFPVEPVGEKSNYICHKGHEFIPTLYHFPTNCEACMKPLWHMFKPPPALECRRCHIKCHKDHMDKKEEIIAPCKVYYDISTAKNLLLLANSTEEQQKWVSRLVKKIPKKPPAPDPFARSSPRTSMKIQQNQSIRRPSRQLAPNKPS

ROCK1, sequence (Q13464 whole entry): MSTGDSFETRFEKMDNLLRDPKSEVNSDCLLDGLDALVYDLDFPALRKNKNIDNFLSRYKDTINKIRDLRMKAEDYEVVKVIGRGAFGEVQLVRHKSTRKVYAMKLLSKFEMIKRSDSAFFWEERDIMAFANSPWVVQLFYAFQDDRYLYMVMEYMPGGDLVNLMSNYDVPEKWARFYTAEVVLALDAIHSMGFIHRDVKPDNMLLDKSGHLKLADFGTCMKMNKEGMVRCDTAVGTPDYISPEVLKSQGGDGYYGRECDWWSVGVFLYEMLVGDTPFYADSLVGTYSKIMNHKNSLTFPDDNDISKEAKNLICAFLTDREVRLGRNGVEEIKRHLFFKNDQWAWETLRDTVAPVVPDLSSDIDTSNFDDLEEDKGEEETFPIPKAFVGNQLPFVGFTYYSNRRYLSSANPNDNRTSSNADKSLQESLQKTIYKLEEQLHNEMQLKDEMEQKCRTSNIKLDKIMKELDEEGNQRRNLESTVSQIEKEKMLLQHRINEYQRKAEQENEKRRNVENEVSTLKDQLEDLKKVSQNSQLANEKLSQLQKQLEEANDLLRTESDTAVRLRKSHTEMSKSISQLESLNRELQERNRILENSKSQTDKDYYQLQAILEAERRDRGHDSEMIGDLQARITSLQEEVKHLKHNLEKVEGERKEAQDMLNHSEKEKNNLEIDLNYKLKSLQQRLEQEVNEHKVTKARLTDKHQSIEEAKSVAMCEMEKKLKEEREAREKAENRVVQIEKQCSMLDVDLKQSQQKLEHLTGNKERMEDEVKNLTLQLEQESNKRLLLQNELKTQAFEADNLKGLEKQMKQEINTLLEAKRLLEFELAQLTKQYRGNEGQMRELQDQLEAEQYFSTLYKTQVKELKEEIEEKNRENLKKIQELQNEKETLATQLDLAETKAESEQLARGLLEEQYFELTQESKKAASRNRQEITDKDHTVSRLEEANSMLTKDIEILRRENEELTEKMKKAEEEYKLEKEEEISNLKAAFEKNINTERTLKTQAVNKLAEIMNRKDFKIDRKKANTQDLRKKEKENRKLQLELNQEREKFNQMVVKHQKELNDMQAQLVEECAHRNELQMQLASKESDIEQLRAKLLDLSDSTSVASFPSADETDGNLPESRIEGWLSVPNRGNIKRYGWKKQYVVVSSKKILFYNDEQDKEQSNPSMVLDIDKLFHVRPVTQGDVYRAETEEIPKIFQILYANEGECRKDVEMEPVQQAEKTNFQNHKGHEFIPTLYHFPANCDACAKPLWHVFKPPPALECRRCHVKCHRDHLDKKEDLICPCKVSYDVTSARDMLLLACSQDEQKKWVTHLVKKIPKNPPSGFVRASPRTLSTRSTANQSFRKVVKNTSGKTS

Ki (ROCK1): 0.2 nM | Ki (ROCK2): 0.2 nM
SMILES: NC[C@@H](C(=O)Nc1ccc2cnccc2c1)c1ccc(CO)cc1
